Data from the supplement of paper PMC8882468.
± gives the standard deviation of the averaged measurements.

The compounds below were run on HCI-001 (organoid from a triple-negative breast cancer xenograft) (assay: CTG-3D luminescence at 96 h relative to day-0 seeding control (ratio to day 0); higher = more growth / less cytotoxicity; PDxO 3D drug screen (set 2), 96 h, CTG-3D normalised to day-0 seeding control.). Conditions: 10 µM; days in culture: 397.

SMILES | CTG-3D luminescence at 96 h
COc1cccc2c1C(=O)c1c(O)c3c(c(O)c1C2=O)C[C@@](O)(C(=O)CO)C[C@@H]3O[C@H]1C[C@H](N)[C@@H](O)[C@H](C)O1 [epirubicin] | 0.197
CC(=O)c1c(C)c2cnc(Nc3ccc(N4CCNCC4)cn3)nc2n(C2CCCC2)c1=O [palbociclib] | 2
O=C(c1cc(Cc2n[nH]c(=O)c3ccccc23)ccc1F)N1CCN(C(=O)C2CC2)CC1 [olaparib] | 2.16

Same assay, conditions: 10 µM; days in culture: 401

SMILES | CTG-3D luminescence at 96 h
COc1cccc2c1C(=O)c1c(O)c3c(c(O)c1C2=O)C[C@@](O)(C(=O)CO)C[C@@H]3O[C@H]1C[C@H](N)[C@@H](O)[C@H](C)O1 [epirubicin] | 0.3
CC(=O)c1c(C)c2cnc(Nc3ccc(N4CCNCC4)cn3)nc2n(C2CCCC2)c1=O [palbociclib] | 1.58
O=C(c1cc(Cc2n[nH]c(=O)c3ccccc23)ccc1F)N1CCN(C(=O)C2CC2)CC1 [olaparib] | 1.73

Same assay, conditions: 100 µM; days in culture: 365

SMILES | CTG-3D luminescence at 96 h
COc1cccc2c1C(=O)c1c(O)c3c(c(O)c1C2=O)C[C@@](O)(C(=O)CO)C[C@@H]3O[C@H]1C[C@H](N)[C@@H](O)[C@H](C)O1 [epirubicin] | -0.00151
CC(=O)c1c(C)c2cnc(Nc3ccc(N4CCNCC4)cn3)nc2n(C2CCCC2)c1=O [palbociclib] | 1.62
O=C(c1cc(Cc2n[nH]c(=O)c3ccccc23)ccc1F)N1CCN(C(=O)C2CC2)CC1 [olaparib] | 1.96

Same assay, conditions: 100 µM; days in culture: 397

SMILES | CTG-3D luminescence at 96 h
COc1cccc2c1C(=O)c1c(O)c3c(c(O)c1C2=O)C[C@@](O)(C(=O)CO)C[C@@H]3O[C@H]1C[C@H](N)[C@@H](O)[C@H](C)O1 [epirubicin] | -0.00311
CC(=O)c1c(C)c2cnc(Nc3ccc(N4CCNCC4)cn3)nc2n(C2CCCC2)c1=O [palbociclib] | 1.24
O=C(c1cc(Cc2n[nH]c(=O)c3ccccc23)ccc1F)N1CCN(C(=O)C2CC2)CC1 [olaparib] | 1.24

Same assay, conditions: 100 µM; days in culture: 401

SMILES | CTG-3D luminescence at 96 h
COc1cccc2c1C(=O)c1c(O)c3c(c(O)c1C2=O)C[C@@](O)(C(=O)CO)C[C@@H]3O[C@H]1C[C@H](N)[C@@H](O)[C@H](C)O1 [epirubicin] | -0.00404
CC(=O)c1c(C)c2cnc(Nc3ccc(N4CCNCC4)cn3)nc2n(C2CCCC2)c1=O [palbociclib] | 0.962
O=C(c1cc(Cc2n[nH]c(=O)c3ccccc23)ccc1F)N1CCN(C(=O)C2CC2)CC1 [olaparib] | 1.26

Same assay, conditions: 625 fM; days in culture: 365

SMILES | CTG-3D luminescence at 96 h
COc1cccc2c1C(=O)c1c(O)c3c(c(O)c1C2=O)C[C@@](O)(C(=O)CO)C[C@@H]3O[C@H]1C[C@H](N)[C@@H](O)[C@H](C)O1 [epirubicin] | 2.09
CC(=O)c1c(C)c2cnc(Nc3ccc(N4CCNCC4)cn3)nc2n(C2CCCC2)c1=O [palbociclib] | 2.11
O=C(c1cc(Cc2n[nH]c(=O)c3ccccc23)ccc1F)N1CCN(C(=O)C2CC2)CC1 [olaparib] | 1.74

Same assay, conditions: 625 fM; days in culture: 397

SMILES | CTG-3D luminescence at 96 h
COc1cccc2c1C(=O)c1c(O)c3c(c(O)c1C2=O)C[C@@](O)(C(=O)CO)C[C@@H]3O[C@H]1C[C@H](N)[C@@H](O)[C@H](C)O1 [epirubicin] | 1.83
CC(=O)c1c(C)c2cnc(Nc3ccc(N4CCNCC4)cn3)nc2n(C2CCCC2)c1=O [palbociclib] | 1.26
O=C(c1cc(Cc2n[nH]c(=O)c3ccccc23)ccc1F)N1CCN(C(=O)C2CC2)CC1 [olaparib] | 1.26

Same assay, conditions: 625 fM; days in culture: 401

SMILES | CTG-3D luminescence at 96 h
COc1cccc2c1C(=O)c1c(O)c3c(c(O)c1C2=O)C[C@@](O)(C(=O)CO)C[C@@H]3O[C@H]1C[C@H](N)[C@@H](O)[C@H](C)O1 [epirubicin] | 1.55
CC(=O)c1c(C)c2cnc(Nc3ccc(N4CCNCC4)cn3)nc2n(C2CCCC2)c1=O [palbociclib] | 1.63
O=C(c1cc(Cc2n[nH]c(=O)c3ccccc23)ccc1F)N1CCN(C(=O)C2CC2)CC1 [olaparib] | 1.62

These compounds were tested on HCI-017.E2 (organoid from an ER-positive breast cancer xenograft) in the same assay as above. Conditions: 12.5 pM.

SMILES | CTG-3D luminescence at 96 h
COc1cccc2c1C(=O)c1c(O)c3c(c(O)c1C2=O)C[C@@](O)(C(=O)CO)C[C@@H]3O[C@H]1C[C@H](N)[C@@H](O)[C@H](C)O1 [epirubicin] | 2.04 ± 0.047
CC(=O)c1c(C)c2cnc(Nc3ccc(N4CCNCC4)cn3)nc2n(C2CCCC2)c1=O [palbociclib] | 2 ± 0.16
O=C(c1cc(Cc2n[nH]c(=O)c3ccccc23)ccc1F)N1CCN(C(=O)C2CC2)CC1 [olaparib] | 2.27 ± 0.03

Same assay, conditions: 12.5 pM; days in culture: 85

SMILES | CTG-3D luminescence at 96 h
COc1cccc2c1C(=O)c1c(O)c3c(c(O)c1C2=O)C[C@@](O)(C(=O)CO)C[C@@H]3O[C@H]1C[C@H](N)[C@@H](O)[C@H](C)O1 [epirubicin] | 2.09
CC(=O)c1c(C)c2cnc(Nc3ccc(N4CCNCC4)cn3)nc2n(C2CCCC2)c1=O [palbociclib] | 2.34
O=C(c1cc(Cc2n[nH]c(=O)c3ccccc23)ccc1F)N1CCN(C(=O)C2CC2)CC1 [olaparib] | 2.36

Same assay, conditions: 0.00025 µM

SMILES | CTG-3D luminescence at 96 h
COc1cccc2c1C(=O)c1c(O)c3c(c(O)c1C2=O)C[C@@](O)(C(=O)CO)C[C@@H]3O[C@H]1C[C@H](N)[C@@H](O)[C@H](C)O1 [epirubicin] | 2.99 ± 0.8
CC(=O)c1c(C)c2cnc(Nc3ccc(N4CCNCC4)cn3)nc2n(C2CCCC2)c1=O [palbociclib] | 2.45 ± 0.34
O=C(c1cc(Cc2n[nH]c(=O)c3ccccc23)ccc1F)N1CCN(C(=O)C2CC2)CC1 [olaparib] | 2.61 ± 0.52

Same assay, conditions: 0.00025 µM; days in culture: 85

SMILES | CTG-3D luminescence at 96 h
COc1cccc2c1C(=O)c1c(O)c3c(c(O)c1C2=O)C[C@@](O)(C(=O)CO)C[C@@H]3O[C@H]1C[C@H](N)[C@@H](O)[C@H](C)O1 [epirubicin] | 2.02
CC(=O)c1c(C)c2cnc(Nc3ccc(N4CCNCC4)cn3)nc2n(C2CCCC2)c1=O [palbociclib] | 1.47
O=C(c1cc(Cc2n[nH]c(=O)c3ccccc23)ccc1F)N1CCN(C(=O)C2CC2)CC1 [olaparib] | 1.92

Same assay, conditions: 0.005 µM

SMILES | CTG-3D luminescence at 96 h
COc1cccc2c1C(=O)c1c(O)c3c(c(O)c1C2=O)C[C@@](O)(C(=O)CO)C[C@@H]3O[C@H]1C[C@H](N)[C@@H](O)[C@H](C)O1 [epirubicin] | 2.22 ± 0.2
CC(=O)c1c(C)c2cnc(Nc3ccc(N4CCNCC4)cn3)nc2n(C2CCCC2)c1=O [palbociclib] | 2.1 ± 0.028
O=C(c1cc(Cc2n[nH]c(=O)c3ccccc23)ccc1F)N1CCN(C(=O)C2CC2)CC1 [olaparib] | 2.34 ± 0.22

Same assay, conditions: 0.005 µM; days in culture: 85

SMILES | CTG-3D luminescence at 96 h
COc1cccc2c1C(=O)c1c(O)c3c(c(O)c1C2=O)C[C@@](O)(C(=O)CO)C[C@@H]3O[C@H]1C[C@H](N)[C@@H](O)[C@H](C)O1 [epirubicin] | 1.7
CC(=O)c1c(C)c2cnc(Nc3ccc(N4CCNCC4)cn3)nc2n(C2CCCC2)c1=O [palbociclib] | 2.15
O=C(c1cc(Cc2n[nH]c(=O)c3ccccc23)ccc1F)N1CCN(C(=O)C2CC2)CC1 [olaparib] | 1.89

Same assay, conditions: 0.1 µM

SMILES | CTG-3D luminescence at 96 h
COc1cccc2c1C(=O)c1c(O)c3c(c(O)c1C2=O)C[C@@](O)(C(=O)CO)C[C@@H]3O[C@H]1C[C@H](N)[C@@H](O)[C@H](C)O1 [epirubicin] | 2.13 ± 0.62
CC(=O)c1c(C)c2cnc(Nc3ccc(N4CCNCC4)cn3)nc2n(C2CCCC2)c1=O [palbociclib] | 2.37 ± 0.17
O=C(c1cc(Cc2n[nH]c(=O)c3ccccc23)ccc1F)N1CCN(C(=O)C2CC2)CC1 [olaparib] | 2.76 ± 0.57

Same assay, conditions: 0.1 µM; days in culture: 85

SMILES | CTG-3D luminescence at 96 h
COc1cccc2c1C(=O)c1c(O)c3c(c(O)c1C2=O)C[C@@](O)(C(=O)CO)C[C@@H]3O[C@H]1C[C@H](N)[C@@H](O)[C@H](C)O1 [epirubicin] | 2.1
CC(=O)c1c(C)c2cnc(Nc3ccc(N4CCNCC4)cn3)nc2n(C2CCCC2)c1=O [palbociclib] | 2.41
O=C(c1cc(Cc2n[nH]c(=O)c3ccccc23)ccc1F)N1CCN(C(=O)C2CC2)CC1 [olaparib] | 2.06
